Reference: ChEMBL document CHEMBL1131223, “Potent antagonists of the SH2 domain of Grb2: optimization of the X+1 position of 3-amino-Z-Tyr(PO3H2)-X+1-Asn-NH2” (J Med Chem, 1998)
pIC50: −log10 of the molar value.

Experiments:
[1] = target: T1, Growth factor receptor-bound protein 2 (Homo sapiens, UniProt P62993); assay: Inhibition of binding to Grb2 SH2 domain
[2] = Inhibition of binding to N-terminal p85 SH2 domain
[3] = target: T2, Tyrosine-protein phosphatase non-receptor type 11 (Homo sapiens, UniProt Q06124); assay: Inhibition of interaction between the activated tyrosine kinase receptors and Shp2 SH2 domains in the Ras signal transduction pathway.
T2 sequence (Q06124 whole entry): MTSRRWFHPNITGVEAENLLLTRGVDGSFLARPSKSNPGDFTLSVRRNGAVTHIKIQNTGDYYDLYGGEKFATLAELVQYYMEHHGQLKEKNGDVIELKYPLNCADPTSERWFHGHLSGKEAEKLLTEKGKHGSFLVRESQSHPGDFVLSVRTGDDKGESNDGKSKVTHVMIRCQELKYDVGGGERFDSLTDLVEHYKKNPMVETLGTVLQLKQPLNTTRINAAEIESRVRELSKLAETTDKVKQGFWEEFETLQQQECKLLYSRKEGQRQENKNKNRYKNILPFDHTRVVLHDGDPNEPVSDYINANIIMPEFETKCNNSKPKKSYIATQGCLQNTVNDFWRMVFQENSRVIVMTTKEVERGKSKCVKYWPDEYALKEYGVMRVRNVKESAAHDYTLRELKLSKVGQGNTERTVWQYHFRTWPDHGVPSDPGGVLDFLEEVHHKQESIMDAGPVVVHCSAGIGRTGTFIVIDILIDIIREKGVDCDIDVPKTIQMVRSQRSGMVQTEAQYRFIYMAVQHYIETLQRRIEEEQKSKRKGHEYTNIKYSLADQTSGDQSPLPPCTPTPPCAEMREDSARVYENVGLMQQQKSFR

[4] = target: Tyrosine-protein kinase Lck (Homo sapiens, UniProt P06239); assay: Inhibition of binding to p56 Lck tyrosine kinase SH2 domain
Tyrosine-protein kinase Lck, sequence (P06239 whole entry, the tested form may be a part): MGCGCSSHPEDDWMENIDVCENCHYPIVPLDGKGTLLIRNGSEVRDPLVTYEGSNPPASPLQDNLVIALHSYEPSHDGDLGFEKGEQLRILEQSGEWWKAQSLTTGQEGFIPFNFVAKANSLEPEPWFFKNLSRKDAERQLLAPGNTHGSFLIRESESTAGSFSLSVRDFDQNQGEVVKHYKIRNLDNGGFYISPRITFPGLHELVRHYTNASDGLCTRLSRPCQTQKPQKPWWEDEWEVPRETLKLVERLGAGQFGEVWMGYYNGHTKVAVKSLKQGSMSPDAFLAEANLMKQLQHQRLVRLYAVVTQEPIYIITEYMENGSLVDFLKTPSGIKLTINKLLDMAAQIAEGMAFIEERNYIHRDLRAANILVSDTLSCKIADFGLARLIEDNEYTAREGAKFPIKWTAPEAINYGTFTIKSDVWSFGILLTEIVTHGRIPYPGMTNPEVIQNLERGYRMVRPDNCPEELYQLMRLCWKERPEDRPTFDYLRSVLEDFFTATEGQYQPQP

[5] = target: T1, Growth factor receptor-bound protein 2; assay: Inhibition of binding to Growth factor receptor bound protein 2 (Grb2) SH2 domain

T1 sequence (P62993 whole entry, the tested form may be a part): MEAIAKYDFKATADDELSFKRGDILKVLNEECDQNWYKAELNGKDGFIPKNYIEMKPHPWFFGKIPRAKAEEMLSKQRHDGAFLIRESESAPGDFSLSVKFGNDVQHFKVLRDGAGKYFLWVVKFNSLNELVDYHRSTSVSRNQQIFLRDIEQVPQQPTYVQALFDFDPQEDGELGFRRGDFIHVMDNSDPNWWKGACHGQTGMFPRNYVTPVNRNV

NC(=O)C[C@H](NC(=O)C1(NC(=O)[C@H](Cc2ccc(OP(=O)(O)O)cc2)NC(=O)OCc2cccc(N)c2)CC1)C(N)=O
pIC50 [1]: 6.91

NC(=O)C[C@H](NC(=O)C1(NC(=O)[C@@H](N)Cc2ccc(OP(=O)(O)O)c(N)c2)CCCCC1)C(N)=O
pIC50 [2]: 6.01
pIC50 [3]: < 5.30
pIC50 [1]: 9.00
pIC50 [4]: 8.20
pIC50 [5]: 8.40

NC(=O)C[C@H](NC(=O)C1(NC(=O)[C@H](Cc2ccc(OP(=O)(O)O)cc2)NC(=O)OCc2cccc(N)c2)CCCC1)C(N)=O
pIC50 [1]: 7.64

NC(=O)C[C@H](NC(=O)C1(NC(=O)[C@H](Cc2ccc(OP(=O)(O)O)cc2)NC(=O)OCc2cccc(N)c2)Cc2ccccc2C1)C(N)=O
pIC50 [1]: 6.85

CC(C)(NC(=O)[C@@H](N)Cc1ccc(OP(=O)(O)O)c(N)c1)C(=O)N[C@@H](CC(N)=O)C(N)=O
pIC50 [1]: 6.69
